Patent USRE47437E1, “Prolyl hydroxylase inhibitors and methods of use” (Akebia Therapeutics, Inc., priority 2015, dated 2019)

Legend:
HIF-1α = test: Mouse tissue HIF Western blot analysis; assay type: in vivo; details: mouse liver; FIG. 1
Description: (§1) Mouse Ischemic Hindlimb Study
(§2) All animal work is conducted in accordance with the Guide for the Care and Use of Laboratory Animals (National Academy of Sciences; Copyright© 1996) and the Institutional Animal Care and Use Committee guidelines at Procter and Gamble Pharmaceuticals. We studied 9-10 week old male C57Bl/6 mice from Charles River Laboratory (Portage, Mich.). The mice are orally dosed with vehicle (aqueous carbonate buffer, 50 mM; pH 9.0) or compound 1 in vehicle at 50 mg/kg or 100 mg/kg. The animals are dosed three times: day 1 at 8 am and 5 pm, day 2 at 8 am. One hour after the first dose, unilateral arterial ligation is performed under anesthesia using isoflurane. The femoral artery is ligated proximal to the origin of the popliteal artery. The contralateral limb underwent a sham surgical procedure. Ligation is performed in an alternating fashion between right and left hindlimbs. Two hours after 8 am dosing on day 2, we obtained blood by ventricular stick while the mice are anesthetized with isoflurane. Serum samples for EPO analysis are obtained using gel clot serum separation tubes. Heart, liver, and gastrocnemius muscles are harvested, snap-frozen in liquid nitrogen, and stored in −80° C. until use.
Mouse Tissue HIF Western Blot Analysis
Tissues from mice stored at −80° C. are powdered with mortar and pestle chilled with liquid nitrogen. […]

EPO = test: Mouse serum EPO assay (mouse ischemic hindlimb study); assay type: in vivo; details: versus vehicle; after oral dosing; FIG. 2
Description: as §1, §2
The mouse serum EPO is detected using Mouse Quantikine Erythropoietin ELISA kit from R&D Systems according to manufacturer's instructions.

Question: What does the source list for O=C(O)CNC(=O)c1ncc(-c2cccc(Cl)c2)cc1O [{[5-(3-Chlorophenyl)-3-hydroxypyridine-2-carbonyl]amino}-acetic acid]?
Answer: stabilization of HIF-1α, immunoblot analysis of nuclear extracts (HIF-1α): stabilization of HIF-1α in mouse liver; erythropoietin level in mouse serum (EPO): elevated versus vehicle
